We go through 17 substances from patent US6596713B1, “Steroid esters and amides, process for their production and their pharmaceutical use” (priority 1994, dated 2003).

The data set is classed as physicochemical. The conditions noted are these: temperature in which 50 mg of substance is dissolved in 1 ml of a 1:4 benzyl benzoate/castor oil mixture; lower temperature = better solubility.
Regarding “(Z)-6′-(4-Cyanophenyl)-9,11α-dihydro-17α-hydroxy-17α-[3-[(1-oxododecyl)oxy]-1-propenyl]-4′H-naphtho[3′,2′,1′:10,9,11]estr-4-en-3-one [Example 5]”, the Solubility was found to be 23 °C.
As to “(Z)-6′-(4-Cyanophenyl)-9,11α-dihydro-17β-hydroxy-17α-[3-[(1-oxoheptyl)oxy]-1-propenyl]-4′H-naphtho[3′,2′,1′:10,9,11]estr-4-en-3-one [Example 3]”, the Solubility came to 23 °C.
As for “(Z)-6′-(4-Cyanophenyl)-9,11α-dihydro-17β-hydroxy-17α-[3-[(1-oxononyl)oxy]-1-propenyl]-4′H-naphtho[3′,2′,1′:10,9,11]estr-4-en-3-one [Example 4]”, the Solubility came out at 23 °C.
For “(Z)-6′-(4-Cyanophenyl)-9,11α-dihydro-17β-hydroxy-17α-[3-[(1-oxopentyl)oxy]-1-propenyl]-4′H-naphtho[3′,2′,1′:10,9,11]estr-4-en-3-one [Example 2]”, the Solubility turned out to be 50 °C.
Regarding “(Z)-6′-(4-Cyanophenyl)-17α-[3-(3-cyclopentyl-1-oxopropoxy)-1-propenyl]-9,11α-dihydro-17β-hydroxy-4′H-naphtho[3′,2′,1′:10,9,11]estr-4-en-3-one [Example 8]”, the Solubility stood at 23 °C.
“(Z)-6′-(4-Fluorophenyl)-17α-(3-hydroxyprop-1-enyl)-9, 11α-dihydro-17β-hydroxy-4′-naphtho]3′,2′,1′:10,9,11]estr-4-en-3-one [Ref. 4, reference compound]”: the Solubility was found to be 100 °C.
For “(Z)-9,11α-Dihydro-17α-[3-(1,4-dioxo-4-ethoxybutoxy)-1-propenyl]-17β-hydroxy-6′-(3-pyridinyl)-4′H-naphtho[3′,2′,1′:10,9,11]estr-4-en-3-one [Example 22]”, the Solubility stood at 50 °C.
Turning to “(Z)-9,11α-Dihydro-17α-[3-(3,3-dimethyl-1-oxobutoxy)-1-propenyl]-6′-(3-pyridinyl)-17βhydroxy-4′H-naphtho[3′,2′,1′:10,9,11]estr-4-en-3-one [Example 21]”, the Solubility stood at 50 °C.
For “(Z)-9,11α-Dihydro-17β-hydroxy-17α-[3-(1-oxopropoxy)-1-propenyl]-6′-(3-pyridinyl)-4′H-naphtho[3′,2′,1′:10,9,11]estr-4-en-3-one [Example 18]” the value was 50 °C; for “(Z)-9,11α-Dihydro-17β-hydroxy-17α-[3-[(1-oxopentyl)oxy]-1-propenyl]-6′-(3-pyridinyl)-4′H-naphtho[3′,2′,1′:10,9,11]estr-4-en-3-one [Example 19]”, 50 °C; for “[S-(Z)]-6′-(4-Cyanophenyl)-9,11α-dihydro-17α-[3-[2-[[(1,1-dimethylethoxy)carbonyl]amino]-3-methyl-1-oxobutoxy]-17β-hydroxy-4′H-naphtho[3′,2′,1′:10,9,11]estr-4-en-3-one [Example 17]”, 50 °C.
For the substance “[S-(Z)]-6′-(4-Fluorophenyl)-9,11α-dihydro-17α-[3-[2-[[(1,1-dimethylethoxy)carbonyl]amino]-1-oxopropoxy]-1-propenyl]-17β-hydroxy-4′H-naphtho[3′,2′,1′:10,9,11]estr-4-en-3-one [Example 41]”, the Solubility is 23 °C.
On to “[S-(Z)]-9,11α-Dihydro-17α-[3-[2-[[(1,1-dimethylethoxy)carbonyl]amino]-1-oxopropoxy]-1-propenyl]-17β-hydroxy-6′-(3-pyridinyl)-4′H-naphtho[3′,2′,1′:10,9,11]estr-4-en-3-one [Example 24]”, for which the Solubility was determined as 50 °C.
“[S-(Z)]-9,11α-Dihydro-17α-[3-[2-[[(1,1-dimethylethoxy)carbonyl]amino]-3-methyl-1-oxobutoxy]-1-propenyl]-17βhydroxy-6′-(3-pyridinyl)-4′H-naphtho[3′,2′,1′:10,9,11]estr-4-en-3-one [Example 25]”: the Solubility was 50 °C.
For “[S-(Z)]-9,11α-Dihydro-17α-[3-[[[(1,1-dimethylethoxy)carbonyl]amino]acetyloxy]-1-propenyl]-17β-hydroxy-6′-(3-pyridinyl)-4′H-naphtho[3′,2′,1′:10,9,11]estr-4-en-3-one [Example 35]”, the Solubility is 23 °C.
Consider “[S-(Z)]-17α-[3-(2-Amino-1-oxopropoxy)-1-propenyl]-6′-(4-fluorophenyl)-9,11α-dihydro-17β-hydroxy-4′H-naphtho[3′,2′,1′:10,9,11]estr-4-en-3-one [Example 40]”, for which the Solubility came to 50 °C.
With “[S-(Z)]-17α-[3-(2-Amino-3-methyl-1-oxobutoxy)-1-propenyl]-6′-(4-cyanophenyl)-9,11α-dihydro-17β-hydroxy-4′H-naphtho[3′,2′,1′:10,9,11]estr-4-en-3-one [Example 16]”, the Solubility was 100 °C.
